Data published in PubChem BioAssay AID248 (DTP/NCI, 2004).
Toxic doses and inconclusive results are not listed. No stated cut-off is given here; in the data, active means T/C of 150% or more; inactive means T/C below 125%.

Tested on: L1210 leukemia ip in BDF1 mice, survival T/C
Test: NCI In Vivo Anticancer Drug Screen. Data for tumor model L1210 Leukemia (intraperitoneal) in B6D2F1 (BDF1) mice
Details: endpoint: mean survival time, higher = longer survival
Method in brief: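 Value reflects the ratio of survival in compound-treated mice to survival in vehicle-treated controls, with both groups carrying the same transplanted tumor.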

[1] = dose: 100.0 mg/kg/injection, schedule: Q04DX003 (ip), vehicle: saline with Tween-80
[2] = dose: 200.0 mg/kg/injection, schedule: Q04DX003 (ip), vehicle: saline with Tween-80
[3] = dose: 100.0 mg/kg/injection, schedule: Q01DX009 (ip), vehicle: Klucel (hydroxypropylcellulose) (HPC)
[4] = dose: 100.0 mg/kg/injection, schedule: Q04DX003 (ip), vehicle: Klucel (hydroxypropylcellulose) (HPC)
[5] = dose: 200.0 mg/kg/injection, schedule: Q01DX009 (ip), vehicle: Klucel (hydroxypropylcellulose) (HPC)
[6] = dose: 200.0 mg/kg/injection, schedule: Q04DX003 (ip), vehicle: Klucel (hydroxypropylcellulose) (HPC)
[7] = dose: 400.0 mg/kg/injection, schedule: Q01DX009 (ip), vehicle: Klucel (hydroxypropylcellulose) (HPC)
[8] = dose: 400.0 mg/kg/injection, schedule: Q04DX003 (ip), vehicle: Klucel (hydroxypropylcellulose) (HPC)
[9] = dose: 100.0 mg/kg/injection, schedule: Q01DX009 (ip), vehicle: saline with Tween-80
[10] = dose: 200.0 mg/kg/injection, schedule: Q01DX009 (ip), vehicle: saline with Tween-80
[11] = dose: 400.0 mg/kg/injection, schedule: Q01DX009 (ip), vehicle: saline with Tween-80
[12] = dose: 100.0 mg/kg/injection, schedule: Q01DX001 (ip), vehicle: Klucel (hydroxypropylcellulose) (HPC)
[13] = dose: 200.0 mg/kg/injection, schedule: Q01DX001 (ip), vehicle: Klucel (hydroxypropylcellulose) (HPC)
[14] = dose: 50.0 mg/kg/injection, schedule: Q01DX009 (ip), vehicle: saline with Tween-80
[15] = dose: 100.0 mg/kg/injection, schedule: Q01DX001 (ip), vehicle: saline
[16] = dose: 200.0 mg/kg/injection, schedule: Q01DX001 (ip), vehicle: saline
[17] = dose: 400.0 mg/kg/injection, schedule: Q01DX001 (ip), vehicle: saline

Measured: T/C

OC(C=C(C(F)(F)F)C(F)(F)F)c1cccc(Cl)c1 (configuration not stated)
inactive: dose: 100.0 mg/kg/injection, schedule: Q04DX003 (sc), vehicle: olive oil, sesame oil, peanut oil 97 % of control | dose: 200.0 mg/kg/injection, schedule: Q04DX003 (sc), vehicle: olive oil, sesame oil, peanut oil 95 % of control | dose: 400.0 mg/kg/injection, schedule: Q04DX003 (sc), vehicle: olive oil, sesame oil, peanut oil 91 % of control

CNC(CCc1ccccc1)C(=O)O (configuration not stated)
inactive: dose: 100.0 mg/kg/injection, schedule: Q01DX009 (ip), vehicle: saline sonified 98 % of control | [1] 100 % of control | dose: 200.0 mg/kg/injection, schedule: Q01DX009 (ip), vehicle: saline sonified 101 % of control | [2] 99 % of control | dose: 400.0 mg/kg/injection, schedule: Q01DX009 (ip), vehicle: saline sonified 93 % of control | dose: 400.0 mg/kg/injection, schedule: Q04DX003 (ip), vehicle: saline with Tween-80 99 % of control

Cn1c(=O)c2[nH]cnc2n(C)c1=O (tested in a mixture with another compound)
inactive: [1] 97 % of control | [2] 96 % of control

COc1cccc(CC#N)c1
inactive: dose: 12.5 mg/kg/injection, schedule: Q01DX001 (ip), vehicle: saline with Tween-80 106 % of control | dose: 25.0 mg/kg/injection, schedule: Q01DX001 (ip), vehicle: saline with Tween-80 93 % of control | dose: 50.0 mg/kg/injection, schedule: Q01DX001 (ip), vehicle: saline with Tween-80 97 % of control

O=C(O)C1C2OC3C(OC(=O)C31)C2Br (configuration not stated)
inactive: dose: 50.0 mg/kg/injection, schedule: Q04DX002 (ip), vehicle: Klucel (hydroxypropylcellulose) (HPC) 107 % of control | [3] 89 % of control | dose: 100.0 mg/kg/injection, schedule: Q04DX002 (ip), vehicle: Klucel (hydroxypropylcellulose) (HPC) 104 % of control | [4] 101 % of control | [5] 91 % of control | dose: 200.0 mg/kg/injection, schedule: Q04DX002 (ip), vehicle: Klucel (hydroxypropylcellulose) (HPC) 100 % of control | [6] 92 % of control | [7] 88 % of control | dose: 400.0 mg/kg/injection, schedule: Q04DX002 (ip), vehicle: Klucel (hydroxypropylcellulose) (HPC) 96 % of control | [8] 93 % of control

Cc1ccc(C[N+](C)(C)C)cc1
inactive: dose: 9.38 mg/kg/injection, schedule: Q01DX001 (ip), vehicle: saline 103 % of control | dose: 18.75 mg/kg/injection, schedule: Q01DX001 (ip), vehicle: saline 100 % of control | dose: 37.5 mg/kg/injection, schedule: Q01DX001 (ip), vehicle: saline 100 % of control

S=C(NCc1ccccc1)NC1CCCCC1
inactive: dose: 25.0 mg/kg/injection, schedule: Q01DX009 (ip), vehicle: saline 97 % of control | dose: 50.0 mg/kg/injection, schedule: Q01DX009 (ip), vehicle: saline 100 % of control | dose: 50.0 mg/kg/injection, schedule: Q04DX003 (ip), vehicle: saline 92 % of control | dose: 100.0 mg/kg/injection, schedule: Q01DX009 (ip), vehicle: saline 96 % of control | dose: 100.0 mg/kg/injection, schedule: Q04DX003 (ip), vehicle: saline 102 % of control

Cc1cc(Cl)cc(C)c1OC(=O)Nc1cccc(C(F)(F)F)c1
inactive: [9] 112 % of control | [10] 106 % of control | [11] 101 % of control

CCOC(=O)C(C(=O)O)(C(c1ccccc1)c1ccccc1)C(c1ccccc1)c1ccccc1
inactive: dose: 75.0 mg/kg/injection, schedule: Q01DX001 (ip), vehicle: carboxymethylcellulose (CMC) 90 % of control

Nc1nc(N)c(CCCOc2ccccc2Cl)c(N)n1
inactive: [12] 102 % of control | [13] 102 % of control

O=C(/C=C\c1ccccc1Cl)c1ccccc1
inactive: dose: 100.0 mg/kg/injection, schedule: Q04DX002 (ip), vehicle: gum acacia 98 % of control | dose: 200.0 mg/kg/injection, schedule: Q04DX002 (ip), vehicle: gum acacia 95 % of control | dose: 400.0 mg/kg/injection, schedule: Q04DX002 (ip), vehicle: gum acacia 113 % of control

CCOC(=O)CCC(NC(=O)c1cccc(N(C)C=O)c1)C(=O)OCC (configuration not stated)
inactive: [14] 100 % of control | [9] 92 % of control | [10] 93 % of control

Nc1[nH]c(=O)[nH]c(=O)c1N=Nc1ccc(S(=O)(=O)Nc2nccs2)cc1
inactive: [15] 98 % of control | [16] 100 % of control | [17] 102 % of control

O=C(Cc1ccccn1)NCCc1ccccc1
inactive: dose: 75.0 mg/kg/injection, schedule: Q01DX009 (ip), vehicle: saline 93 % of control | dose: 75.0 mg/kg/injection, schedule: Q04DX003 (ip), vehicle: saline 108 % of control | dose: 150.0 mg/kg/injection, schedule: Q01DX009 (ip), vehicle: saline 94 % of control | dose: 150.0 mg/kg/injection, schedule: Q04DX003 (ip), vehicle: saline 108 % of control | dose: 300.0 mg/kg/injection, schedule: Q04DX003 (ip), vehicle: saline 90 % of control

Cc1nc(/N=N/c2nc(C)c(C)[nH]2)[nH]c1C
inactive: [3] 95 % of control | [4] 88 % of control | [5] 104 % of control | [6] 93 % of control | [7] 92 % of control | [8] 93 % of control

CC(C)C(=O)c1ccccc1C(=O)O
inactive: [14] 93 % of control | [9] 93 % of control | [10] 93 % of control

Nc1cccc(-c2ccccc2)c1
inactive: [12] 92 % of control | [13] 90 % of control

CCOC(=O)c1cc(CC)sc1N
inactive: [9] 96 % of control | [4] 91 % of control | [10] 86 % of control | [6] 97 % of control | [11] 90 % of control | [8] 96 % of control

CCOC(=O)c1c(C)c2c(n1C)CCC(C#N)C2=O (configuration not stated)
inactive: dose: 100.0 mg/kg/injection, schedule: Q01DX001 (ip), vehicle: carboxymethylcellulose (CMC) 103 % of control | dose: 200.0 mg/kg/injection, schedule: Q01DX001 (ip), vehicle: carboxymethylcellulose (CMC) 97 % of control | dose: 400.0 mg/kg/injection, schedule: Q01DX001 (ip), vehicle: carboxymethylcellulose (CMC) 98 % of control

CC1OC(O)C(N)C(O)C1O (configuration not stated)
inactive: [15] 107 % of control | [16] 106 % of control | [17] 106 % of control

O=C1NC(=O)C(c2cccc(Cl)c2)N1 (configuration not stated)
inactive: dose: 50.0 mg/kg/injection, schedule: Q01DX001 (ip), vehicle: saline 106 % of control | [15] 93 % of control | [16] 98 % of control | [17] 104 % of control

O=C(c1ccccc1)C1CCC(Cl)CC1 (configuration not stated)
inactive: dose: 100.0 mg/kg/injection, schedule: Q01DX001 (ip), vehicle: other 96 % of control | dose: 200.0 mg/kg/injection, schedule: Q01DX001 (ip), vehicle: other 101 % of control | dose: 400.0 mg/kg/injection, schedule: Q01DX001 (ip), vehicle: other 102 % of control
